Reference: patent US4784958A, “1,4-dihydropyridine derivatives and 1,4-dihydroquinoline derivatives radioactively labelled with ^125 I, their preparation, and their use in testing medicaments” (priority 1983, dated 1988)
Read-outs that look alike come from different tables or passages of the source.

How the values were obtained:
[1] = target: T1, guinea-pig skeletal muscle membranes (1,4-dihydropyridine receptors / calcium channel) (Cavia porcellus, UniProt A0A286X7I0); experiment: Competition radioreceptor assay with the ^125 I-labelled 1,4-dihydropyridine of Example 2; format: binding
T1 construct: membrane fractions from guinea-pig brain, cardiac muscle and skeletal muscle; from tissue; host or cells: guinea-pig skeletal muscle membranes
T1 sequence (A0A286X7I0 1-1867): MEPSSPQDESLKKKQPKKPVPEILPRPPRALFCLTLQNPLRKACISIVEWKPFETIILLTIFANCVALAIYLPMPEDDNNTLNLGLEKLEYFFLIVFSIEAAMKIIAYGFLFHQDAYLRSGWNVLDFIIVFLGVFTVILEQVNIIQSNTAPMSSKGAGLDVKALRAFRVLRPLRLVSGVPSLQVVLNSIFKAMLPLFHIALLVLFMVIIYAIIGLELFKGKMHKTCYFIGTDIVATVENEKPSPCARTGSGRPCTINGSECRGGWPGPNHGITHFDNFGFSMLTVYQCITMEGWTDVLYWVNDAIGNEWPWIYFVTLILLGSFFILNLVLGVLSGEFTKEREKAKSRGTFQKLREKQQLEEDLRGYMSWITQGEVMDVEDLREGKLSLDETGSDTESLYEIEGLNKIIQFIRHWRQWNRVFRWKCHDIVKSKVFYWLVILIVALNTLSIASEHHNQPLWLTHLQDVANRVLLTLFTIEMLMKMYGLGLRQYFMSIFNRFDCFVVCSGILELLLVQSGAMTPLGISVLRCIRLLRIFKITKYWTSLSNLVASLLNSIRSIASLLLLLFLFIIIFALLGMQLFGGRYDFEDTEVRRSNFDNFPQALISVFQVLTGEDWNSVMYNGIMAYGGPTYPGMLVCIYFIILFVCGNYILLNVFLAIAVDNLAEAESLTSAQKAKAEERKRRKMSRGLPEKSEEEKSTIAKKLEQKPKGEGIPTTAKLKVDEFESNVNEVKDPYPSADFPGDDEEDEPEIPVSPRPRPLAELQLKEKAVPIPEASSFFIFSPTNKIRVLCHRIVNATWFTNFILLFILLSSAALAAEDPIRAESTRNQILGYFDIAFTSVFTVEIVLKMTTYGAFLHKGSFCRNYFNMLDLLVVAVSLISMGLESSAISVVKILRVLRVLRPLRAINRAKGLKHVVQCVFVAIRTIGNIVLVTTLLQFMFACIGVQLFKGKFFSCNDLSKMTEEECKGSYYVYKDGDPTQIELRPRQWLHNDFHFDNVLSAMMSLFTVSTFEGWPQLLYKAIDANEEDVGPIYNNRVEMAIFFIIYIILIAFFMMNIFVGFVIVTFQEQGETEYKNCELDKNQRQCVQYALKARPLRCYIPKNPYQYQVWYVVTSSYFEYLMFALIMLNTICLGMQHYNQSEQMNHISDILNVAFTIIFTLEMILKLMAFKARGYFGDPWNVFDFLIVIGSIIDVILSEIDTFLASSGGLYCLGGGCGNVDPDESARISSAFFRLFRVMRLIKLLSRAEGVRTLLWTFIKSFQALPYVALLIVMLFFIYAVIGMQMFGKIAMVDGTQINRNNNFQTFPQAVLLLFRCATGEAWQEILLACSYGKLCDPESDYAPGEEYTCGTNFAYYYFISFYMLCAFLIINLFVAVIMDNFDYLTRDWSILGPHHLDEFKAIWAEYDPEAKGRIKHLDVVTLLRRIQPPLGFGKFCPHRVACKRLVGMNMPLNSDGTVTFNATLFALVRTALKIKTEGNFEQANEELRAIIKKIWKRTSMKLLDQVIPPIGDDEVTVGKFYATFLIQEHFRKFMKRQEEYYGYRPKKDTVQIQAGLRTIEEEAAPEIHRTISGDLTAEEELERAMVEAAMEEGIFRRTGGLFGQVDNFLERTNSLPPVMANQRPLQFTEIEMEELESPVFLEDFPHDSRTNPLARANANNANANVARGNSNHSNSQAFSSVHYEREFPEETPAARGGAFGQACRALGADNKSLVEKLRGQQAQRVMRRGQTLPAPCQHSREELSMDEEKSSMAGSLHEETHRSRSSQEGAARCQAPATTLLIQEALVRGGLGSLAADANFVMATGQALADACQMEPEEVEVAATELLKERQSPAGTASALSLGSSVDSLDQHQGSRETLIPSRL
Method: In order to separate the free ligand from the bound ligand, 10% (w/v) polyethylene glycol 6000 was added to ice-cold 10 mM TRIS HCl buffer, pH 7.4, followed by 20 mM MgCl2 (3.5 ml), the sample was diluted, suction filtered in vacuo over a glass fibre filter, and the glass fibre filter was rewashed twice with 3.5 ml of the same buffer. The particle-bound radioactivity retained on the filters was then measured.
The data in Table 1 are mean values (±asymptotic standard deviation) from 3 independent experiments in which various calcium antagonists and derivatives or precursors of calcium antagonists were used as competitors with the ^125 I-labelled 1,4-dihydropyridine ("ligand") obtained in Example 2. Guinea-pig skeletal muscle membranes were used as receptor material. The concentration of the labelled ligand was 20-30 pmole/l and the experimental temperature was 25° C. 6 to 9 different concentrations of the checked substances were used (in each case as duplicate) and the measured binding data were optimally adapted by means of a computer program (DeLean A., Munson P. J., Rodbard D. (1978). Simultaneous analysis of families of sigmoid curves: application to bioassay, radioligand assay and physiological dose-response curves. Am J. Physiol. 4 E97-102). The stereospecifity of the binding for chiral 1,4-dihydropyridines was investigated as an important criterion for the receptor binding of the ^125 I-labelled 1,4-dihydropyridine in group 1. […] The EC50 value is the concentration of the substance stimulating a semi-maximum specific binding of the ligand.

[2] = Stability of the ^125 I-labelled 1,4-dihydropyridine (HPLC, thin layer chromatography); format: physicochemical
Method: The following formula was used to calculate the concentration of the free ligand: (T. a)-B, where T is the total concentration of the ligand, a is a factor describing the binding capacity of the ligand, and B is the concentration of the specifically bound ligand in equilibrium. The factor a was determined experimentally by saturating the radioactive ligand with binding sites (receptors) (described in FEBS Lett. 148, 331-337, 1982; Naunyn Schmiedeberg's Arch. Pharmacol 321, 7-10, 1982). The factor "a" was 0.5 for the asymmetric 1,4-dihydropyridine derivative, in agreement with the theoretically required capacity of the receptor (R) and (S) to differentiate enantiomers of the ^125 I-labelled 1,4-dihydropyridine (stereospecifity of the binding). The ^125 I-labelled 1,4-dihydropyridine is the racemic mixture of (R) and (S) enantiomers. A dissociation constant of 350 pmole/l (25° C.) was found for muscle membranes (not illustrated). The stability of the ^125 I-labelled 1,4-dihydropyridine was checked under the following conditions by conventional methods (HPLC, thin layeer chromatography): buffer 50 mM TRIS HCl, pH 7.4, 25° C., 4 hours; muscle membrane in buffer, 25° C., 4 hours; as well as storage in benzene or absolute ethanol at -20° C. for up to 21 days after preparation of the ligand. In no case were the radiochemical impurities greater than 10%.

[3] = target: T2, skeletal muscle membranes (1,4-dihydropyridine receptors) (Cavia porcellus, UniProt A0A286X7I0); experiment: Saturation analysis, binding of ^125 I-labelled 1,4-dihydropyridine to skeletal muscle membranes; parameters: species or system guinea-pig; conditions: 25° C.
T2 construct: membrane fractions from guinea-pig brain, cardiac muscle and skeletal muscle; from tissue; host or cells: guinea-pig skeletal muscle membranes
T2 sequence (A0A286X7I0 1-1867): as above
Method: (§1) Aliquots of the obtained and ^125 I-labelled 1,4-dihydropyridine are dried in a stream of nitrogen, incubated with buffer (50 mM TRIS-HCl, pH 7.4, to which the protease inhibitor phenylmethylsulphonyl fluoride has been added (0.1 mmole/l)) and membrane fractions from guinea-pig brain, cardiac muscle and skeletal muscle (prepared as described in Drug Development 9: 63-98 (1983); Naunyn-Schmiedeberg's Arch. Pharmacol. 321: 80-83 (1983) and FEBS Lett 148: 331-337 (1982)) at 25° C. in 0.1 ml volume until equilibrium is reached, and the specific binding (defined as the difference in the binding of the ^125 I-labelled 1,4-dihydropyridine in the absence and presence of 1 μmole/l of Nimodipin) is measured by means of the filtration technique (to separate bound and free ^125 I-labelled 1,4-dihydropyridine). […] The particle-bound radioactivity retained on the filters was then measured.
(§2) The following formula was used to calculate the concentration of the free ligand: (T. a)-B, where T is the total concentration of the ligand, a is a factor describing the binding capacity of the ligand, and B is the concentration of the specifically bound ligand in equilibrium. The factor a was determined experimentally by saturating the radioactive ligand with binding sites (receptors) (described in FEBS Lett. 148, 331-337, 1982; Naunyn Schmiedeberg's Arch. Pharmacol 321, 7-10, 1982). […]

[4] = target: T3, 1,4-dihydropyridine receptors in guinea-pig brain membranes (Cavia porcellus, UniProt O35505); experiment: Saturation analysis, binding of ^125 I-labelled 1,4-dihydropyridine to brain membranes; conditions: 25° C., read-out: dissociation constant (conclusion)
T3 construct: 1,4-dihydropyridine receptors in guinea-pig brain membranes; from tissue; host or cells: guinea-pig brain membranes
T3 sequence (O35505 whole entry): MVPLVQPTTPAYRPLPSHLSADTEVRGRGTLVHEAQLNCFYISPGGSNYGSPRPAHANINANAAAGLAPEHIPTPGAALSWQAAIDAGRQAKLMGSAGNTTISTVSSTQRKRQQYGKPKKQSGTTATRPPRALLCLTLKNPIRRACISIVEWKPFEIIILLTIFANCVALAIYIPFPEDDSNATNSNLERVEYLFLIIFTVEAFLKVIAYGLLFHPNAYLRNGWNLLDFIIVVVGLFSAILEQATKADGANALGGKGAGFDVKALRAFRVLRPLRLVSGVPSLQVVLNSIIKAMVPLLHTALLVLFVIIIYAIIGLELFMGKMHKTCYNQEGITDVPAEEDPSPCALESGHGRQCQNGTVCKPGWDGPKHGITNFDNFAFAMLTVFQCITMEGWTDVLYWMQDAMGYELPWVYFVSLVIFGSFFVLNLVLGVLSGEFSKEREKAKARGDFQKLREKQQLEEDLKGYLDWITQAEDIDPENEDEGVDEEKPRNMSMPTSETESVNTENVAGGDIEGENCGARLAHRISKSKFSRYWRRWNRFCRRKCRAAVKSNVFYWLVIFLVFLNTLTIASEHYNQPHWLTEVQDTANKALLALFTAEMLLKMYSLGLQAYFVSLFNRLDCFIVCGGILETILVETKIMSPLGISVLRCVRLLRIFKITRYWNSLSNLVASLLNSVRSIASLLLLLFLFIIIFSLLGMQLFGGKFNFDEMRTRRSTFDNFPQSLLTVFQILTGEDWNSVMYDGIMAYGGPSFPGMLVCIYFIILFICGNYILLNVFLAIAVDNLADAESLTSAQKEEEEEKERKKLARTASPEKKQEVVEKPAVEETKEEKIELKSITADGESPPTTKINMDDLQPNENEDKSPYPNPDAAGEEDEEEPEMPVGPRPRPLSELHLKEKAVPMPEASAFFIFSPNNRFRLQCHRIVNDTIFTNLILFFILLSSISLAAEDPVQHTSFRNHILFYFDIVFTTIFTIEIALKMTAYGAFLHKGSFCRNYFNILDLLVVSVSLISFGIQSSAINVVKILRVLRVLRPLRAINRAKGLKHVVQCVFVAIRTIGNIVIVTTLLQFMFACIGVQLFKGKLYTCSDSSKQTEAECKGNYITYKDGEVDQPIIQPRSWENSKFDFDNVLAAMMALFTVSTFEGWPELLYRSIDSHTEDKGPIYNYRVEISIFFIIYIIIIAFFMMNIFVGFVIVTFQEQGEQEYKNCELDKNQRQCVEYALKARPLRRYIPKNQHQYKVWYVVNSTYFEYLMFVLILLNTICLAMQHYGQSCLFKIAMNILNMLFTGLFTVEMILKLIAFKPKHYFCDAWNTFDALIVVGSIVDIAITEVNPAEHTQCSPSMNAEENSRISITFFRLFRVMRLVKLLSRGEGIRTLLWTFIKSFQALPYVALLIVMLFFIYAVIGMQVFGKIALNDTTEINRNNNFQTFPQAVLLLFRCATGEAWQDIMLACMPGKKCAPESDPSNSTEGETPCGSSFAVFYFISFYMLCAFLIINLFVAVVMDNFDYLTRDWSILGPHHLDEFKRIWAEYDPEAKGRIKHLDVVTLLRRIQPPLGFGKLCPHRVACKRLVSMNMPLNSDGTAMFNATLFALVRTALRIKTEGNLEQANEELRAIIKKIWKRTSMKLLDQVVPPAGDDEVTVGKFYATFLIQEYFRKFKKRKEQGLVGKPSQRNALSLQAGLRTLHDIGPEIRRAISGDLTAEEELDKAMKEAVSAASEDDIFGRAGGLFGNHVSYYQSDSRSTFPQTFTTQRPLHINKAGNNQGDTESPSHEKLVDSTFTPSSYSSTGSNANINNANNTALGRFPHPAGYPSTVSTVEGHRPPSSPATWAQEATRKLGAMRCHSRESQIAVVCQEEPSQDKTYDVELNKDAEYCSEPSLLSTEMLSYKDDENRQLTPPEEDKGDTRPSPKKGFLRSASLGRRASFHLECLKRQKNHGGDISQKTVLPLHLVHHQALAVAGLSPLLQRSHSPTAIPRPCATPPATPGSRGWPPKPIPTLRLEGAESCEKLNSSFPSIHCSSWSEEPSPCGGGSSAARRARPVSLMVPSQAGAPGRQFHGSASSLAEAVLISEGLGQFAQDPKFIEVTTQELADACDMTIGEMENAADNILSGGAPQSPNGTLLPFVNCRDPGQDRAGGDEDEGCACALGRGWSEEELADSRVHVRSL
Method: as §1, §2

[5] = read-out: IC50 (50% inhibition of the specific binding of the ligand in the radioreceptor assay), guinea-pig skeletal muscle membranes, ligand 20-30 pmole/l, 25° C., mean ± asymptotic standard deviation, 3 independent experiments
[6] = guinea-pig skeletal muscle membranes, ligand 20-30 pmole/l, 25° C., mean ± asymptotic standard deviation, 3 independent experiments

Compound	IC50 [1, 6]	other results
1,4-dihydro-2,6-dimethyl-4-(2-trifluoromethylphenyl)-3,5-pyridinecarboxylic acid 2-(aminoethyl)ethyl ester [Bay K 8644]	–	IC50 [1, 5]: 0.037 ± 0.005 µM
COC(=O)C1=C(C)NC(C)=C(C(=O)OC(C)C)C1c1cccc2nonc12 (single isomer, unassigned; (+)) [(+)205-033, isopropyl 4-(2,1,3-benzoxadiazole-4-yl)-1,4-dihydro-2,6-dimethyl-5-methoxycarbonylpyridine-3-carboxylate]	0.002 ± 5e-05 µM	–
COC(=O)C1=C(C)NC(C)=C(C(=O)OC(C)C)C1c1cccc([N+](=O)[O-])c1 (single isomer, unassigned; (+)) [(+)Bay e 6927, isopropylmethyl 1,4-dihydro-2,6-dimethyl-4-(3-nitrophenyl)-3,5-pyridinedicarboxylate]	0.42 ± 0.067 µM	–
COc1ccc(CCN(C)CCCC(C#N)(c2cc(OC)c(OC)c(OC)c2)C(C)C)cc1OC (single isomer, unassigned; (+)) [(+)Methoxyverapamil, Methoxyverapamil]	0.19 ± 0.05 µM	–
COC(=O)C1=C(C)NC(C)=C(C(=O)OCCN(C)Cc2ccccc2)C1c1cccc([N+](=O)[O-])c1 (single isomer, unassigned; (+)) [(+)Nicardipine, 2,6-dimethyl-4-(3 nitrophenyl)-1,4-dihydropyridine-3,5-dicarboxylic acid 3-2(N-benzyl-N-methylamino)-ethylester-5-methylester]	0.007 ± 0.0008 µM	–
COC(=O)C1=C(C)NC(C)=C(C(=O)OC(C)C)C1c1cccc2nonc12 (single isomer, unassigned; (-)) [(-)205-034, isopropyl 4-(2,1,3-benzoxadiazole-4-yl)-1,4-dihydro-2,6-dimethyl-5-methoxycarbonylpyridine-3-carboxylate]	0.198 ± 0.04 µM	–
CCOC(=O)C1=C(C)NC(C)=C(C(=O)O)C1c1cccc([N+](=O)[O-])c1 (stereo not drawn) [Bay M 5579]	–	IC50 [1, 5]: 1.86 ± 0.3 µM
CCOC(=O)C1=C(C)NC(C)=C(C(=O)OCCNC(=O)CCc2ccc(O)c([125I])c2)C1c1ccccc1C(F)(F)F (stereo not drawn) [^125 I-labelled 1,4-dihydropyridine]	–	stability (conclusion) [2]: sufficient stability; radiochemical impurities (stability) ([2]; 50 mM TRIS HCl pH 7.4, 25° C., 4 hours, muscle membrane in buffer, 25° C., storage in benzene or absolute ethanol at -20° C. up to 21 days): ≤ 10%; Kd ([3]; muscle membranes, read-out: dissociation constant (KD)): 0.00035 µM; Kd ([3]; skeletal muscle membranes, read-out: dissociation constant (conclusion)): < 0.001 µM; Kd [4]: < 0.001 µM
COc1ccc([C@@H]2Sc3ccccc3N(CCN(C)C)C(=O)[C@@H]2OC(C)=O)cc1 [d-cis-Diltiazem]	–	EC50 [1]: 0.96 ± 0.31 µM
COc1ccc([C@H]2Sc3ccccc3N(CCN(C)C)C(=O)[C@H]2OC(C)=O)cc1 [l-cis-Diltiazem]	–	IC50 [1]: 3 ± 1.6 µM

Second part, led by results:

IC50 [1, 6]	Compound	other results
0.003 ± 4e-05 µM	COC(=O)C1=C(C)NC(C)=C(C(=O)OC(C)C)C1c1cccc([N+](=O)[O-])c1 (single isomer, unassigned; (-)) [(-)Bay e 6927, isopropylmethyl 1,4-dihydro-2,6-dimethyl-4-(3-nitrophenyl)-3,5-pyridinedicarboxylate]	–
0.042 ± 0.003 µM	COC(=O)C1=C(C)NC(C)=C(C(=O)OCCN(C)Cc2ccccc2)C1c1cccc([N+](=O)[O-])c1 (single isomer, unassigned; (-)) [(-)Nicardipine, 2,6-dimethyl-4-(3 nitrophenyl)-1,4-dihydropyridine-3,5-dicarboxylic acid 3-2(N-benzyl-N-methylamino)-ethylester 5-methylester]	–
0.021 ± 0.008 µM	COc1ccc(CCN(C)CCC[C@@](C#N)(c2cc(OC)c(OC)c(OC)c2)C(C)C)cc1OC [(-)Methoxyverapamil, Methoxyverapamil]	–
1.25 ± 0.18 µM	CCOC(=O)C1=C(C)NC2=C(C(=O)OC2)C1c1ccccc1OC(F)F (stereo not drawn) [CGP 28392]	–
